Converted amounts (≈) assume the structure as drawn. “Also recorded” adds a separate entry of the source. Read-outs that look alike come from different tables or passages of the source.
What was measured:
[1] = Solubility, Experiment 1 (target concentration 2 mg/mL); format: physicochemical; conditions: for Solubility / XRPD of residual solid: 37° C.
Procedure: (§1) Experiment 1: 5 mg of Form A and 5 mg of amorphous form were weighed into an 8 mL glass vial, respectively. 2.5 mL of solubility medium was added. Obtained suspensions/solutions were stirred at 37° C. at 400 rpm and sampled at 2 hours and at 24 hours. Obtained suspensions/solutions were filtered through a 0.45 μm PVDF membrane filter by centrifugation at 14,000 rpm and at 37° C. Filtrate were analyzed by HPLC and pH meter for solubility and pH value, respectively. Residual solids (wet cakes) from the 24 hours samples were also characterized by XRPD to determine physical form.

[2] = Solubility, Experiment 2 (target concentration 5 mg/mL); format: physicochemical; conditions: for Solubility: 37° C.
Procedure: as §1, with “2:” for “1:”, “1” for “2.5”, “respectively.” for “respectively. Residual solids (wet cakes) from the 24 hours samples were also characterized by XRPD to determine physical form.”

[3] = Phase 1 clinical trial, safety and tolerability; format: in vivo, human
Text: (§2) A Phase 1 Open-Label Study to Assess the Safety, Tolerability, Pharmacokinetics, and Pharmacodynamics of Compound 1 in Patients with MAPK Pathway-Driven Advanced Solid Tumors with a Documented RAS, NF1, or RAF Mutation or Patients Who have Failed BRAF/MEK Inhibition
(§3) The Phase 1 clinical trial is a multi-center, open-label, dose escalation 3+3 study design to evaluate the safety, tolerability, pharmacokinetic (PK), pharmacodynamic (PD), and preliminary efficacy of Compound 1 in patients with MAPK pathway driven advanced solid tumors with a documented RAS, NF or RAF mutation or patients who have failed BRAF/MEK inhibition.
(§4) Patients with histologically or cytologically diagnosed mitogen-activated protein kinase (MAPK) pathway driven advanced solid tumors with all of the following characteristics qualified for enrollment: • i. tumor cannot be surgically resected • ii. patient has failed or is ineligible for standard of care therapy • iii. patient has no available treatment options with known clinical benefit • iv. documented evidence of rat sarcoma virus (RAS), neurofibromatosis type I (NF1), and/or rapidly accelerated fibrosarcoma (RAF) mutations. Patients with RAF mutations must have previously failed v-Raf murine sarcoma viral oncogene homolog B (BRAF)/MEK inhibition.
(§5) Patients in the study were administered Compound 1 by mouth as a single dose, followed by one week observation, then once a day during the study, in 28-day cycles. Participants will continue on daily Compound 1 for up to 2 years, or until: • i. they decide to withdraw from the study, or • ii. they experience unacceptable side effects, or • iii. their disease progresses, or another illness interferes with taking the study drug, or • iv. the sponsors stops the study.
(§6) In this study, Compound 1 was presented in 1 mg, 4 mg, and 10 mg strength capsules, intended for oral administration once daily. Sequential dose escalation is: 2 mg, 4 mg, 8 mg, 15 mg, 22 mg, 30 mg, 37 mg, and 45 mg.

[4] = Phase 1 clinical trial, pharmacokinetics; format: in vivo, human; conditions: for AUC0-24 / Cmin / half-life / Cmax: patients; for AUC0-24 / Cmin / Cmax: geometric mean (geometric CV %); for half-life / Cmax: human, plasma, po
Text: as §2, §3, §4, §5, §6

Bulk stability = format: physicochemical; conditions: 25° C./92.5% RH open, 40° C./75% RH open, 60° C. closed container; 1 week
Procedure: Form A was placed at 25° C./92.5% RH in an open container, at 40° C./75% RH in an open container, and at 60° C. in a closed container for 1 week. Samples after the stress were characterized by XRPD and HPLC and inspected for color change.

Hygroscopicity by DVS = format: physicochemical
Procedure: Water sorption and desorption behavior Form A was investigated by DVS at 25° C. with a cycle of 40-0-95-0-40% RH. XRPD was measured after the DVS test to determine form change. […] The DVS test measured 0.4% water uptake from 40% to 80% RH, see FIG. 4.

[5] = Mechanic properties (compression, dry grinding, wet granulation simulation); format: physicochemical
Procedure: Compression simulation experiments: about 20 mg of Form A was compressed for 5 minutes under 2 MPa, 5 MPa and 10 MPa with a hydraulic press. Potential form change and degree of crystallinity were evaluated by XRPD.
Dry grinding simulation experiments: about 20 mg of Form A was ground manually with a mortar and a pestle for 5 min. Potential form change and degree of crystallinity were evaluated by XRPD.
Wet granulation simulation experiments: water or ethanol was added drop-wisely to about 20 mg of Form A until the sample was wetted sufficiently. Wet sample was ground gently with in a mortar and a pestle for 5 min. Post granulation sample was dried under ambient condition for 10 min. Potential form change and degree of crystallinity were evaluated by XRPD.

[6] = Acetate buffer (50 mM), pH 4.5, 24 h
[7] = Acetate buffer (50 mM), pH 4.5, 24 h, target concentration 2 mg/mL
[8] = FaSSGF, pH 1.6, 24 h, target concentration 2 mg/mL
[9] = FaSSIF-v1, pH 6.5, 2 h, target concentration 2 mg/mL
[10] = FaSSIF-v1, pH 6.5, 24 h, target concentration 2 mg/mL
[11] = HCl solution, pH 1.2, 24 h, target concentration 2 mg/mL
[12] = Phosphate buffer (50 mM), pH 6.8, 24 h
[13] = Phosphate buffer (50 mM), pH 6.8, 24 h, target concentration 2 mg/mL
[14] = 2 mg, Day 22 (steady state), oral once daily
[15] = 4 mg, Day 22 (steady state), oral once daily

O=S1(=O)Nc2c(cc(F)c(F)c2Nc2ccc(I)cc2F)OC[C@H](O)[C@H](O)CC12CC2 [Amorphous form, (5R,6S)-10,11-difluoro-12-((2-fluoro-4-iodophenyl)amino)-5,6-dihydroxy-4,5,6,7-tetrahydro-1H-spiro[benzo[b][1,5,4]oxathiazecine-3,1′-cyclopropane]2,2-dioxide]
Solubility ([1]; Acetate buffer (50 mM), pH 4.5, 2 h, target concentration 2 mg/mL): 17 µg/mL (≈ 29.8 µM)
XRPD of residual solid [1, 6]: Amorphous
Solubility [1, 7]: 17 µg/mL (≈ 29.8 µM)
Solubility ([1]; FaSSGF, pH 1.6, 2 h, target concentration 2 mg/mL): 16 µg/mL (≈ 28.1 µM)
XRPD of residual solid ([1]; FaSSGF, pH 1.6, 24 h): Amorphous
Solubility [1, 8]: 14 µg/mL (≈ 24.5 µM)
Solubility [1, 9]: 1100 µg/mL (≈ 1930 µM)
XRPD of residual solid ([1]; FaSSIF-v1, pH 6.5, 24 h): Amorphous
Solubility [1, 10]: 1200 µg/mL (≈ 2100 µM)
Solubility ([1]; FeSSIF-v1, pH 5.0, 2 h, target concentration 2 mg/mL): >2000 µg/mL
Solubility ([1]; FeSSIF-v1, pH 5.0, 24 h, target concentration 2 mg/mL): >2000 µg/mL
Solubility ([1]; HCl solution, pH 1.2, 2 h, target concentration 2 mg/mL): 14 µg/mL (≈ 24.5 µM)
XRPD of residual solid ([1]; HCl solution, pH 1.2, 24 h): Form A
Solubility [1, 11]: 13 µg/mL (≈ 22.8 µM)
Solubility ([1]; Phosphate buffer (50 mM), pH 6.8, 2 h, target concentration 2 mg/mL): 16 µg/mL (≈ 28.1 µM)
XRPD of residual solid [1, 12]: Amorphous
Solubility [1, 13]: 16 µg/mL (≈ 28.1 µM)
Solubility ([1]; Water, 2 h, target concentration 2 mg/mL): 38 µg/mL (≈ 66.6 µM)
XRPD of residual solid ([1]; Water, 24 h): Amorphous
Solubility ([1]; Water, 24 h, target concentration 2 mg/mL): 34 µg/mL (≈ 59.6 µM)
Solubility ([2]; FeSSIF-v1, pH 5.0, 2 h): >5000 µg/mL
Solubility ([2]; FeSSIF-v1, pH 5.0, 24 h): >5000 µg/mL

O=S1(=O)Nc2c(cc(F)c(F)c2Nc2ccc(I)cc2F)OC[C@H](O)[C@H](O)CC12CC2 [Compound 1, (5R,6S)-10,11-difluoro-12-((2-fluoro-4-iodophenyl)amino)-5,6-dihydroxy-4,5,6,7-tetrahydro-1H-spiro[benzo[b][1,5,4]oxathiazecine-3,1′-cyclopropane]2,2-dioxide]
Rash or skin, gastrointestinal (GI), ocular toxicity ([3]; 2 and 4 mg dose levels): without showing adverse side effects such as rash or GI toxicity; also recorded: no rash or skin toxicity, gastrointestinal (GI) toxicity, or ocular toxicity have been observed
Drug-related serious adverse events (SAE) ([3]; any dose arm): no drug-related serious adverse events
Drug-related dose interruptions, reductions or discontinuations ([3]; first 2 dosing cohorts (n=6)): no drug-related dose interruptions, reductions or discontinuations
Tolerability ([3]; first 2 dosing cohorts (n=6), 2 mg and 4 mg): well-tolerated
Dose dependence of plasma exposure ([4]; 2 mg and 4 mg cohorts): linear PK was observed
AUC0-24 ([4]; 2 mg, Day 1, oral): 86.3 (89.2) ng*h/mIL
AUC0-24 [4, 14]: 354 (95.2) ng*h/mIL
Cmin [4, 14]: 10.2 (119.4) ng/mL
AUC0-24 ([4]; 4 mg, Day 1, oral): 100 (97.1) ng*h/mIL
AUC0-24 [4, 15]: 1,390 (12.8) ng*h/mIL
Cmin [4, 15]: 51.5 (20.8) ng/mL
time at which drug levels peaked ([4]; at steady-state, 2 mg and 4 mg dose groups): about 5 hours
half-life ([4]; 2 mg and 4 mg cohorts, oral, read-out: half-life (converted)): ~70 h
half-life ([4]; 2 mg and 4 mg cohorts, oral, read-out: mean elimination half-life (converted)): 67.9 h
Cmax ([4]; 2 mg, Day 1, oral): 4.91 ng/mL
Cmax [4, 14]: 16.2 ng/mL
Cmax ([4]; 4 mg, Day 1, oral): 6.36 ng/mL
Cmax [4, 15]: 61.3 ng/mL
Cmax/Cmin ratio ([4]; plasma concentration at steady state): 1.2

O=S1(=O)Nc2c(cc(F)c(F)c2Nc2ccc(I)cc2F)OC[C@H](O)[C@H](O)CC12CC2 [Form A, (5R,6S)-10,11-difluoro-12-((2-fluoro-4-iodophenyl)amino)-5,6-dihydroxy-4,5,6,7-tetrahydro-1H-spiro[benzo[b][1,5,4]oxathiazecine-3,1′-cyclopropane]2,2-dioxide]
Color change after stress (Bulk stability): no change of color was observed
Physical form after stress (XRPD) (Bulk stability): Form A was confirmed
Water uptake (DVS) (Hygroscopicity by DVS; 25° C., from 40% to 80% RH): 0.4%
Hygroscopicity (Hygroscopicity by DVS; DVS at 25° C., cycle 40-0-95-0-40% RH): slightly hygroscopic
XRPD after the DVS test (form change) (Hygroscopicity by DVS; after DVS cycle 40-0-95-0-40% RH): no form change
XRPD of residual solid [1, 6]: Form A
Solubility [1, 7]: 5.1 µg/mL (≈ 8.94 µM)
solubility at 2 h ([1]; FaSSGF, pH 1.6, 37 °C, pH 1.6, fassgf or other biorelevant, thermodynamic from solid, pH 1.6, 2 h, target concentration 2 mg/mL): 12 µg/mL (≈ 21 µM)
XRPD of residual solid ([1]; FaSSGF, pH 1.6, 24 h): Form A
Solubility [1, 8]: 6.3 µg/mL (≈ 11 µM)
Solubility [1, 9]: 270 µg/mL (≈ 473 µM)
XRPD of residual solid ([1]; FaSSIF-v1, pH 6.5, 24 h): Form A
Solubility [1, 10]: 330 µg/mL (≈ 579 µM)
solubility at 2 h ([1]; FeSSIF-v1, pH 5.0, 37 °C, pH 5, fessif, thermodynamic from solid, FeSSIF-v1, pH 5.0, 2 h, target concentration 2 mg/mL): 1800 µg/mL (≈ 3160 µM)
solubility at 24 h ([1]; FeSSIF-v1, pH 5.0, 37 °C, pH 5, fessif, thermodynamic from solid, FeSSIF-v1, pH 5.0, 24 h, target concentration 2 mg/mL): ≥ 2000 µg/mL
solubility at 2 h ([1]; HCl solution, pH 1.2, 37 °C, pH 1.2, simulated gastric fluid, thermodynamic from solid, pH 1.2, 2 h, target concentration 2 mg/mL): 12 µg/mL (≈ 21 µM)
XRPD of residual solid ([1]; HCl solution, pH 1.2, 24 h): Form A
Solubility [1, 11]: 3.7 µg/mL (≈ 6.49 µM)
XRPD of residual solid [1, 12]: Form A
Solubility [1, 13]: 5.1 µg/mL (≈ 8.94 µM)
XRPD of residual solid ([1]; Water, 24 h): Form A
solubility at 2 h ([1]; acetate buffer (50 mM), pH 4.5, 37 °C, pH 4.5, aqueous buffer, thermodynamic from solid, pH 4.5, 2 h, target concentration 2 mg/mL): 12 µg/mL (≈ 21 µM)
solubility at 2 h ([1]; phosphate buffer (50 mM), pH 6.8, 37 °C, pH 6.8, aqueous buffer, thermodynamic from solid, pH 6.8, 2 h, target concentration 2 mg/mL): 13 µg/mL (≈ 22.8 µM)
solubility at 2 h ([1]; water, 37 °C, thermodynamic from solid, 2 h, target concentration 2 mg/mL): 19 µg/mL (≈ 33.3 µM)
solubility at 24 h ([2]; FeSSIF-v1, pH 5.0, 37 °C, pH 5, fessif, thermodynamic from solid, 24 h): 3000 µg/mL (≈ 5260 µM)
Solubility ([2]; FeSSIF-v1, pH 5.0, 2 h): 2400 µg/mL (≈ 4210 µM)
Crystallinity after compression (XRPD) ([5]; compressed 5 minutes under 2 MPa, 5 MPa and 10 MPa): No obvious decrease in crystallinity
Crystallinity after dry grinding (XRPD) ([5]; ground manually with mortar and pestle for 5 min): Only a slight decrease in crystallinity
Crystallinity after wet granulation (XRPD) ([5]; water or ethanol, ground 5 min, dried 10 min): Only a slight decrease in crystallinity

— patent US20260193221A1, “SOLID FORMS COMPRISING (5R,6S)-10,11-DIFLUORO-12-((2-FLUORO-4-IODOPHENYL)AMINO)-5,6-DIHYDROXY-4,5,6,7-TETRAHYDRO-1H-SPIRO[BENZO[B][1,5,4]OXATHIAZECINE-3,1'-CYCLOPROPANE] 2,2-DIOXIDE, AND COMPOSITIONS COMPRISING AND METHODS OF USING THE SAME” (PASITHEA THERAPEUTICS CORP., priority 2024, published 2026)
